Results from US9199983B2, “3-aryl-6-aryl-[1,2,4]triazolo[4,3-α]pyridines as inhibitors of cell proliferation and the use thereof” (priority 2010, dated 2015).

Legend:
[1] = tested on: Human lung cancer cell line A549; assay: MTT cancer cell cytotoxicity assay, A549; format: cell-based; settings: Homo sapiens, A549 cells, 48-72 h
Procedure, shortened: (§1)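 Seeding: HepG2 and A549 at 3000, SMMC7721 at 5000, B16F10 at 2000 cells/well, attached overnight. Compounds (10 μM to 1 nM, triplicate) were applied for 48-72 h at 37 °C, followed by 4 h MTT. A550 minus A660 was fitted for IC50, with untreated wells as maximum and reference-drug total kill as background.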

[2] = tested on: liver cancer cell line HepG2; assay: MTT cancer cell cytotoxicity assay, HepG2; format: cell-based, human; settings: Homo sapiens, HepG2 cells, 48-72 h
Procedure, shortened: as §1

[3] = tested on: liver cancer cell line SMMC7721; assay: MTT cancer cell cytotoxicity assay, SMMC7721; format: cell-based, human; settings: Homo sapiens, SMMC-7721, SMMC7721 cells, 48-72 h
Procedure, shortened: as §1

[4] = tested on: breast cancer cell line T47D; assay: MTT cancer cell cytotoxicity assay, T47D; format: cell-based, human; settings: Homo sapiens, T47D cells, 48-72 h
Procedure, shortened: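 Human T47D breast cancer cells, cultured per ATCC recommendations with 10% fetal bovine serum and penicillin/streptomycin, were plated at 3000 cells/well in 96-well plates. After overnight attachment they were exposed in triplicate to compounds (10 μM to 1 nM) for 48-72 h. MTT was then added for 4 h and the formazan dissolved in DMSO. Absorbance at 550 nm minus 660 nm was fitted in Prism 5 to give IC50.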

[5] = tested on: mouse melanoma cell line B16F10; assay: MTT cancer cell cytotoxicity assay, B16F10; format: cell-based; settings: Mus musculus, B16-F10, B16F10 cells, 48-72 h
Protocol: Identification of 3-(2-methoxyphenyl)-6-(4-methoxyphenyl)-[1,2,4]triazolo[4,3-a]pyridine and analogs as inhibitors of cell proliferation that were evaluated with standard MTT cancer cell cytotoxicity assay (IC50)
Human lung cancer cell line A549, breast cancer cell line T47D, liver cancer cell lines HepG2 and SMMC7721 as well as a mouse melanoma cell line B16F10 were used in the study. The cells were cultured in corresponding growth media recommended by American Type Culture Collection (ATCC) with the supplementation of penicillin G (100 U/ml)/streptomycin (100 µg/ml), and 10% fetal bovine serum (Hangzhou Sijiqing Biological Engineering Materials, Co., Ltd. China) at 37° C. in a humidified atmosphere containing 5% CO2. Cells at about 80% confluency were harvested by trypsinization. Cells were centrifuged, re-suspended in fresh growth media and counted. Corresponding numbers of cells were seeded to 96-well cell culture plates (HepG2 cell, T-47D and A549 cells at 3000 cells/well, SMMC-7721 cells at 5000 cells/well and B16F10 cells at 2000 cells/well) in a total volume of […]. Cells were incubated in CO2 incubator over night to allow the cells to attach. In next day, […] of medium containing testing (from 10 μM to 1 nM) or reference compounds was added to each well of the cells. Media without compound were used as 100% control. Cells were treated with each concentration of compounds in triplicates to ensure data accuracy. Cells were incubated with compounds in CO2 incubator for an additional 48-72 h at 37° C. After incubation, cells were removed from the CO2 incubator and […] of 5 mg/ml MTT (3-(4,5-dimethylthiazole-2-yl)-2,5-diphenyltetrazoliumbromide, Sigma) solution in PBS was added to each well. Cells were returned to CO2 incubator and incubated for additional 4 h. After the incubation, media were removed by aspiration and […] DMSO was added to each well. Plates were sealed with aluminum foil and shaked mildly on an orbital shaker for 10 min at room temperature. The absorption was measured at 550 nm with a plate reader (Varioskan Flash, Thermo Fisher Scientific) with 660 nm reading used as background control. The relative absorbance readings were calculated by subtracting readings at 660 nm from that at 550 nm. The relative absorbance was plotted again the concentrations of the testing compounds and the plots were fitted with a one-site lg(IC50) equation using Prism 5 software (GraphPad Software, Inc). The equation used in the curve fitting is as follows: relative absorbance reading=background reading+(maximal reading−brackground reading)/(1+10 ^(compound concentration-log IC50)). The background reading used in the calculation was obtained with 100% cell death using a reference anticancer drug, whereas the maximal reading was obtained in the well with no added compound. The IC50 value calculated from the equation represents the cytotoxic potency of a particular compound.

caspase-3 activation [6] = assay: Caspase-3 activation (apoptosis induction) in T-47D cells; format: cell-based; settings: Homo sapiens; T47D cells, 24 h treatment; read-out: EC50 to induce caspase-3 activation, T47D
Protocol: (§2) Identification of 3-(2-methoxyphenyl)-6-(4-methoxyphenyl)-[1,2,4]triazolo[4,3-a]pyridine and analogs as inducers of apoptosis in solid tumor cells
(§3) Human breast cancer cell line T-47D and lung cancer cell line A549, growing in DMEM/F12+10% FBS media were seeded to a density of 20000 cells/well in 96-well cell culture plate and grew overnight (18-24 h) in CO2 cell culture incubator at 37° C. Next day the medium were removed by aspiration and […] fresh growth media was added to each well followed by […] of growth media containing 10× concentration of reference or testing compounds with 10% DMSO. Twenty four hours later, cell culture plates were centrifuged at 1000 g for 5 min and the supernatant was removed by emptying contents into a reservoir. Fifty μl of Lysis Buffer (10 mM Tris, pH7.5, 0.1M NaCl, 1 Mm EDTA, 0.01% Triton X-100) was added to each well and the plates were incubated with gentle agitation on an orbital shaker at 4° C. for 30 min. The plates were then centrifuged at 1000 g for 10 min at 4° C. and 20 μl of the supernatant was transferred from each well to a corresponding well in a black 384-well. Twenty μl of caspase-3 assay buffer (20 mM PIPES, pH7.4, 4 Mm EDTA and 0.2% CHAPS) containing 20 μM fluorogenic caspase-3 substrate ((Ac-DEVD)2-R110, AnaSpec Cat #60304-5) was added to each well. The samples were mixed by agitation and incubated at 37° C. for 3 h. The fluorescent intensity of each well was read on a fluorescent plate reader (Varioskan Flash, Thermo Fisher Scientific) with excitation wavelength at 496 nm and emission wavelength at 520 nm. The activity of compounds on caspase-3 activation was determined by plotting the relative fluorescent unit (RFU) against the testing concentrations of the compounds. The EC50 values were determined by fitting the above responding curves into Prism sigmoidal dose-response equation (GraphPad Software, Inc).

caspase-3 activation [7] = assay: Caspase-3 activation (apoptosis induction) in A549 cells; format: cell-based; settings: Homo sapiens, A-549 cells, 24 h treatment, read-out: EC50 to induce caspase-3 activation, A-549
Protocol: as §2, §3

EC50 (caspase-3 activation [6])	EC50 (caspase-3 activation [7])	SMILES	IC50 [1]	IC50 [2]	IC50 [3]	IC50 [4]	IC50 [5]
55 nM	83 nM	COc1ccc(-c2ccc3nnc(-c4ccccc4OC)n3c2)cc1 [Example 1, 3-(2-Methoxyphenyl)-6-(4-methoxyphenyl)-[1,2,4]triazolo[4,3-a]pyridine]	35 nM	28 nM	13 nM	37 nM	36 nM
76 nM	93 nM	COc1ccc(-c2ccc3nnc(-c4ccccc4OC)n3c2)cc1C [Example 5, 6-(4-Methoxy-3-methylphenyl)-3-(2-methoxyphenyl)-[1,2,4]triazolo[4,3-a]pyridine]	11 nM	32 nM	11 nM	40 nM	37 nM
240 nM	32 nM	COc1ccc(-c2ccc3nnc(-c4ccccc4OC)n3c2)cc1Cl [Example 26, 6-(3-Chloro-4-methoxyphenyl)-3-(2-methoxyphenyl)-[1,2,4]triazolo[4,3-a]pyridine]	33 nM	23 nM	12 nM	52 nM	23 nM
228 nM	25 nM	COc1ccc(-c2ccc3nnc(-c4ccccc4OC)n3c2)cc1F [Example 35, 6-(3-Fluoro-4-methoxyphenyl)-3-(2-methoxyphenyl)-[1,2,4]triazolo[4,3-a]pyridine]	20 nM	19 nM	9.9 nM	68 nM	16 nM

The next lines start with the compound.

SMILES	EC50 (caspase-3 activation [6])	EC50 (caspase-3 activation [7])	IC50 [1]	IC50 [2]	IC50 [3]	IC50 [4]	IC50 [5]
COc1ccc(-c2ccc3nnc(-c4ccc(Cl)cc4OC)n3c2)cc1 [Example 57, 3-(4-Chloro-2-methoxyphenyl)-6-(4-methoxyphenyl)-[1,2,4]triazolo[4,3-a]pyridine]	20 nM	5 nM	3.4 nM	3.4 nM	6.7 nM	4.1 nM	1.6 nM
COc1ccc(-c2ccc3nnc(-c4ccc(C)cc4OC)n3c2)cc1 [Example 66, 3-(2-Methoxy-4-methylphenyl)-6-(4-methoxyphenyl)-[1,2,4]triazolo[4,3-a]pyridine]	62 nM	11 nM	12 nM	15 nM	3.7 nM	19 nM	3.4 nM
COc1ccc(-c2ccc3nnc(-c4ccc(Cl)cc4OC)n3c2)cc1O [Example 89, 3-(4-Chloro-2-methoxyphenyl)-6-(3-hydroxy-4-methoxyphenyl)-[1,2,4]triazolo[4,3-a]pyridine]	2.3 nM	–	1.6 nM	1.4 nM	> 10000 nM	0.84 nM	1.1 nM
